In patent US9624164B2, “Phenyl carbamate compounds for use in preventing or treating epilepsy” (Bio-Pharm Solutions Co., Ltd., priority 2011, dated 2017):
Read-outs that look alike come from different tables or passages of the source.

What was measured:
Type in all cases: in vivo
male ICR mice [1] = experiment: scPTZ test (subcutaneous pentylenetetrazol-induced clonic seizure), intraperitoneal administration, mice; settings: ip
Protocol: (§1) After Peak time (0.5, 1, 2 and 4 hr) from the administration, PTZ (Pentylenetetrazol) was administered subcutaneously in the concentration capable of inducing 97% intermittent convulsions (mice: 100˜110 mg/kg·bw, 100 ul/g, or rats: 90˜110 mg/kg·bw, 20 ul/g). If clonic seizure was not observed for at least 3 seconds in the PTZ administered animal, it can be considered that the test compound has anti-epilepsy activity.

mice = experiment: Measurement of neurotoxicity (rotarod, Dunham and Miya); settings: protective index
Protocol: The measurement of neurotoxicity of the test compounds was conducted by the method of Dunham and Miya [Dunham, N. W. and Miya, T. S. 1957. A note on a simple apparatus for detecting neurological deficit in rats and mice. J. Am. Pharm. Assoc. (Baltimore) 46: 208-209]. In the method, motor abilities of the test animals can be determined by observing whether the test animals can walk without falling from a rotator, thereby determining the value of neurotoxicity of each compound. […] They were pre-trained on the rotarod (Rotarod; Columbus instrument, rota-max, USA) at 6 rpm for 5 min 24 hr prior to the test. The peak time was determined by administration test material's random dose for 0.5, 1, 2, 4 hour. […] The ratio of TD50 to ED50 (TD50/ED50) is called as a protective index, and useful as a parameter for comparison of pharmaceutical efficacy and neurotoxicity.

male ICR mice [2] = experiment: MES test (maximal electroshock, corneal electrodes), oral administration, mice
male SD rats [3] = experiment: MES test (maximal electroshock, corneal electrodes), oral administration, rats
male SD rats [4] = experiment: scPTZ test (subcutaneous pentylenetetrazol-induced clonic seizure), intraperitoneal administration, rats; settings: ip; for ED50: Rat, read-out: Duration of scPTZ test ED50
Protocol: as §1

male ICR mice [5] = experiment: scPTZ test (subcutaneous pentylenetetrazol-induced clonic seizure), intraperitoneal administration, mice; settings: Mouse, ip, read-out: Duration of scPTZ test ED50
[6] = Mus musculus, mice, at peak time, read-out: ScPTZ test(ip) ED50

In the case of `CC(OC(N)=O)C(O)c1ccccc1Cl` (racemic) [Compound 3, 1-(2-chlorophenyl)-1-hydroxypropyl-2-carbamate], the ED50 (male ICR mice [1]; [6]) was 15.3 mg/kg and the “PI (TD50/ED50 in MES)” value (mice) was 12.0.

`CCC(OC(N)=O)C(O)c1ccccc1Cl` (racemic) [Compound 8, 1-(2-chlorophenyl)-1-hydroxybutyl-2-carbamate] was tested, and the responders at 100 mg/kg (male ICR mice [2]; Mus musculus, injection amount 100 mg/kg, 4 mice, read-out: MES test(po) Protection %) was 100%.

Work on `CCCCC(OC(N)=O)C(O)c1ccccc1Cl` (racemic) [Compound 14, 1-(2-chlorophenyl)-1-hydroxyhexyl-2-carbamate] yielded a responders at 200 mg/kg (male ICR mice [2]; Mus musculus, injection amount 200 mg/kg, 4 mice, read-out: MES test(po) Protection %) of 100%.

In the case of `C[C@H](OC(N)=O)[C@@H](O)c1ccccc1Cl` [Compound 1, 1-(2-chlorophenyl)-(S)-1-hydroxypropyl-(S)-2-carbamate], the efficacy duration time (male ICR mice [2]; MES test, mice) was “at least 12 hours”, the efficacy duration time (male SD rats [3]) was “at least 12 hours” and the ED50 (male ICR mice [1]; Mouse, 0.5 h, read-out: Duration of scPTZ test ED50) was 17.3 mg/kg. The ED50 (male ICR mice [1]; Mouse, 1 h, read-out: Duration of scPTZ test ED50) was 16.9 mg/kg, the ED50 (male ICR mice [1]; Mouse, 2 h, read-out: Duration of scPTZ test ED50) was 15.8 mg/kg and the ED50 (male ICR mice [1]; Mouse, 4 h, read-out: Duration of scPTZ test ED50) was 27.4 mg/kg. For the same compound, the ED50 (male ICR mice [1]; [6]) was 15.8 mg/kg, the efficacy duration time (male ICR mice [1]; scPTZ test, mice) was “at least 12 hours” and the ED50 (male SD rats [4]; 0.5 h) was 18.9 mg/kg. The ED50 (male SD rats [4]; 1 h) was 14.5 mg/kg, the ED50 (male SD rats [4]; 2 h) was 21 mg/kg and the ED50 (male SD rats [4]; 4 h) was 31 mg/kg. The ED50 (male SD rats [4]; 8 h) was 41.3 mg/kg, the ED50 (male SD rats [4]; 12 h) was 76.7 mg/kg and the efficacy duration time (male SD rats [4]; scPTZ test, rats) was “at least 12 hours”. For the same compound, the “PI (TD50/ED50 in MES)” value (mice) was 16.8, the ED50 (male ICR mice [5]; 6 h) was 52.2 mg/kg and the ED50 (male ICR mice [5]; 8 h) was 80.7 mg/kg. It also gave an ED50 (male ICR mice [5]; 12 h) of 201 mg/kg.

In the case of `C[C@@H](OC(N)=O)[C@H](O)c1ccccc1Cl` [Compound 2, 1-(2-chlorophenyl)-(R)-1-hydroxypropyl-(R)-2-carbamate], the ED50 (male ICR mice [1]; [6]) was 38.8 mg/kg and the “PI (TD50/ED50 in MES)” value (mice) was 7.3.

`C[C@H](OC(N)=O)[C@H](O)c1ccccc1Cl` [Compound 5, 1-(2-chlorophenyl)-(R)-1-hydroxypropyl-(S)-2-carbamate] was tested, and the ED50 (male ICR mice [1]; [6]) was 15 mg/kg and the “PI (TD50/ED50 in MES)” value (mice) was 3.3.

`CC[C@H](OC(N)=O)[C@@H](O)c1ccccc1Cl` [Compound 6, 1-(2-chlorophenyl)-(S)-1-hydroxybutyl-(S)-2-carbamate] gave an ED50 (male ICR mice [1]; [6]) of 17.9 mg/kg.

In the case of `C[C@H](OC(N)=O)[C@@H](O)c1c(Cl)cccc1Cl` [Compound 37, 1-(2,6-dichlorophenyl)-(S)-1-hydroxypropyl-(S)-2-carbamate], the ED50 (male ICR mice [1]; [6]) was 25.7 mg/kg and the “PI (TD50/ED50 in MES)” value (mice) was 5.1.

With `CC[C@H](OC(N)=O)[C@@H](O)c1ccc(Cl)cc1Cl` [Compound 39, 1-(2,4-dichlorophenyl)-(S)-1-hydroxybutyl-(S)-2-carbamate] the ED50 (male ICR mice [1]; [6]) was 24.3 mg/kg.

In the case of `C[C@H](OC(N)=O)[C@@H](O)c1ccccc1F` [Compound 63, 1-(2-fluorophenyl)-(S)-1-hydroxypropyl-(S)-2-carbamate], the responders at 50 mg/kg (male ICR mice [2]; Mus musculus, injection amount 50 mg/kg, 4 mice, read-out: MES test(po) Protection %) was 100%.
